Results: US20250064941A1, “SIGLEC LIGANDS, CONJUGATES, AND METHODS OF USE THEREOF” (Osprey Biopharmaceuticals, Inc., priority 2023, published 2025)
pKd: −log10 of the molar value.

Tests used:
[1] = biological target: T1, mouse Siglec-2-Fc-Avi (CD22) (Mus musculus, UniProt P35329); experiment: SPR binding affinity to mouse CD22; conditions: steady-state analysis
T1 construct: made in house
T1 sequence (P35329 22-708 limits assumed): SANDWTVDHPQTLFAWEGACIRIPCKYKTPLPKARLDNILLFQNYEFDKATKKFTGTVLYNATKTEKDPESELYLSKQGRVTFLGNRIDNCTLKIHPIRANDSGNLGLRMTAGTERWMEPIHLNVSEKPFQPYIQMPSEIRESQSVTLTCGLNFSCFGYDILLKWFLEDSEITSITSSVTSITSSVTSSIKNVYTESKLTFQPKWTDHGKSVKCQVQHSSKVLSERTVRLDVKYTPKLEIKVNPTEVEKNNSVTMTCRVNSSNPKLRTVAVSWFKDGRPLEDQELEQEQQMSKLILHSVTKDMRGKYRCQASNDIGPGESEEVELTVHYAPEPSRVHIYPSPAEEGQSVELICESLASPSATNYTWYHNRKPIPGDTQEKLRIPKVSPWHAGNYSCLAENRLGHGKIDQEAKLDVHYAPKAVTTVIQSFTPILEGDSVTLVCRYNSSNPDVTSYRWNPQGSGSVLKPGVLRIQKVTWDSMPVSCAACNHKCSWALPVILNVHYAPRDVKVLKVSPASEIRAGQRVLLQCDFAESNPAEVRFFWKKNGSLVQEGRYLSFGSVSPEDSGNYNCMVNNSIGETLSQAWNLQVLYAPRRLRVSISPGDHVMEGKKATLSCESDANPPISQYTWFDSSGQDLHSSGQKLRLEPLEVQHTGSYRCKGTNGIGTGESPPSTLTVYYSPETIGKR
In short: (§1)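 Biotinylated CD22 desialylated with SialoExo (4 h, 37° C) before capture on streptavidin chip. Running buffer 10 mM HEPES, 150 mM NaCl, 0.05% Tween-20, pH 7.5, 1% DMSO, with DMSO solvent correction; 120 s dissociation. Compound affinities from steady-state analysis.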

[2] = biological target: T2, human Siglec-2/CD22 protein (Homo sapiens, UniProt P20273); experiment: SPR binding affinity to human CD22; conditions: steady-state analysis
T2 construct: purchased Acro Biosystems SI2-H82E3
T2 sequence (P20273 20-847): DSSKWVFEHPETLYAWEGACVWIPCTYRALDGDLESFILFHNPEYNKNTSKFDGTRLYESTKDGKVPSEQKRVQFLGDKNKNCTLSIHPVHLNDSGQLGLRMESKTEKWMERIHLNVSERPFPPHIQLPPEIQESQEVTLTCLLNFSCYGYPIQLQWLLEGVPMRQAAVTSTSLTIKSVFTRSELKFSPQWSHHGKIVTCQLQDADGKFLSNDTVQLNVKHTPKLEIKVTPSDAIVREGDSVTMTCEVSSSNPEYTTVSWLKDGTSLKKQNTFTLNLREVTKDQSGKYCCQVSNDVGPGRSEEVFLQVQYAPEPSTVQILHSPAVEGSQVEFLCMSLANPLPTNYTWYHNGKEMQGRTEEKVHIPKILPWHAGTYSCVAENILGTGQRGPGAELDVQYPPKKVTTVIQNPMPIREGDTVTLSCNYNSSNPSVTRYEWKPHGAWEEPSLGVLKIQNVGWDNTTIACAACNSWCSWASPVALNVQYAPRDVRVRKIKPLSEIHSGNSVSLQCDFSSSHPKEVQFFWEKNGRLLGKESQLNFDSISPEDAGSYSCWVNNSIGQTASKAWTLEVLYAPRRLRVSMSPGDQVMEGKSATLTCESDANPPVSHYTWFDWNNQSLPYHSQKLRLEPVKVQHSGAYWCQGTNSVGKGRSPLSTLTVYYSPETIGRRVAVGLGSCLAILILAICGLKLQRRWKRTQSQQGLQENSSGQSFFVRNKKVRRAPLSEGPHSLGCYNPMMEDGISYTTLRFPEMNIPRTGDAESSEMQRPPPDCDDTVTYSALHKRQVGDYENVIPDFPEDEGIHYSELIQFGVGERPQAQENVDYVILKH
In short: as §1

cynomolgus Siglec-2/CD22 = cynomolgus Siglec-2/CD22 (Macaca fascicularis, UniProt A0A2K5WCZ6); experiment: biochemical; type: binding; conditions: SPR, steady-state analysis; read-out: Affinity cyno CD22
In short: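 SPR with desialylated (SialoExo, 4 h, 37° C.) cynomolgus CD22 amine-coupled to a CM5 chip. Running buffer 10 mM HEPES, 150 mM NaCl, 0.05% Tween-20, pH 7.5, 1% DMSO, with solvent correction; 120 s dissociation. Affinities from steady-state analysis.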

Chain of cynomolgus Siglec-2/CD22 (A0A2K5WCZ6 entry or part of it): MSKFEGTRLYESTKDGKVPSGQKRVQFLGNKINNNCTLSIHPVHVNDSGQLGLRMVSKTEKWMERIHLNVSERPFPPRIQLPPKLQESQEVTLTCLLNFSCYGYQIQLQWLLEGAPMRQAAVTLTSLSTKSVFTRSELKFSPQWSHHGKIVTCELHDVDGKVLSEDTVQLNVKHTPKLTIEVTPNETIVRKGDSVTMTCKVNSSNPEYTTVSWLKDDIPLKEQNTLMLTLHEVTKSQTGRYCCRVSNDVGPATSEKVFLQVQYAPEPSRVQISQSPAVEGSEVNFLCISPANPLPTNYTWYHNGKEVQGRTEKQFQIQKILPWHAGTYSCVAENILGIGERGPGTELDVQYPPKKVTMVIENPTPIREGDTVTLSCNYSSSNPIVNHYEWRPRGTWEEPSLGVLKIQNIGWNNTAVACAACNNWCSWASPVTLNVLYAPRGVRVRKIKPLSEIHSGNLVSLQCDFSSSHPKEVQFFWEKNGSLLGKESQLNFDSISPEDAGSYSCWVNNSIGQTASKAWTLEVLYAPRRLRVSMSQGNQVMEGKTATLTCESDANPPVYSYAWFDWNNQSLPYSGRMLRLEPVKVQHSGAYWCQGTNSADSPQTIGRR

| SMILES | pKd [1] | pKd [2] | pKd (cynomolgus Siglec-2/CD22) |
| --- | --- | --- | --- |
| C#CCOCCCCCCO[C@]1(C(=O)O)C[C@H](O)[C@@H](NC(=O)CO)[C@H]([C@H](O)[C@H](O)CNC(=O)Cc2ccc(Cl)c(O)c2)O1 [Compound 128, (2R,4S,5R,6R)-6-((1R,2R)-3-(2-(4-chloro-3-hydroxyphenyl)acetamido)-1,2-dihydroxypropyl)-4-hydroxy-5-(2-hydroxyacetamido)-2-((6-(prop-2-yn-1-yloxy)hexyl)oxy)tetrahydro-2H-pyran-2-carboxylic acid] | > 6.00 | > 6.00 | > 6.00 |
| C#CCOCCCCCCO[C@]1(C(=O)O)C[C@H](O)[C@@H](NC(=O)CO)[C@H]([C@H](O)[C@H](O)CNC(=O)Cc2cccc(OC(F)(F)F)c2)O1 [Compound 155, (2R,4S,5R,6R)-6-((1R,2R)-1,2-dihydroxy-3-(2-(3-(trifluoromethoxy)phenyl)acetamido)propyl)-4-hydroxy-5-(2-hydroxyacetamido)-2-((6-(prop-2-yn-1-yloxy)hexyl)oxy)tetrahydro-2H-pyran-2-carboxylic acid] | 5.00 to 6.00 | > 6.00 | > 6.00 |
| C#CCCOc1ccc(CO[C@]2(C(=O)O)C[C@H](O)[C@@H](NC(=O)CO)[C@H]([C@H](O)[C@H](O)CNC(=O)Cc3cccc(NC(C)=O)c3)O2)cc1 [Compound 164, (2R,4S,5R,6R)-6-((1R,2R)-3-(2-(3-acetamidophenyl)acetamido)-1,2-dihydroxypropyl)-2-((4-(but-3-yn-1-yloxy)benzyl)oxy)-4-hydroxy-5-(2-hydroxyacetamido)tetrahydro-2H-pyran-2-carboxylic acid] | 5.00 to 6.00 | 5.00 to 6.00 | 5.00 to 6.00 |
| C#CCOc1ccc(CO[C@]2(C(=O)O)C[C@H](O)[C@@H](NC(=O)CO)[C@H]([C@H](O)[C@H](O)CNC(=O)Cc3ccc(-c4ccc(O)cc4)c(Cl)c3)O2)cc1 [Compound 47, (2R,4S,5R,6R)-6-((1R,2R)-3-(2-(2-chloro-4′-hydroxy-[1,1′-biphenyl]-4-yl)acetamido)-1,2-dihydroxypropyl)-4-hydroxy-5-(2-hydroxyacetamido)-2-((4-(prop-2-yn-1-yloxy)benzyl)oxy)tetrahydro-2H-pyran-2-carboxylic acid] | > 6.00 | > 6.00 | > 6.00 |
| C#CCCOc1ccc(CO[C@]2(C(=O)O)C[C@H](O)[C@@H](N)[C@H]([C@H](O)[C@H](O)CNC(=O)Cc3ccc(-c4ccc(O)cc4)cc3)O2)cc1 [Compound 55, (2R,4S,5R,6R)-5-amino-2-((4-(but-3-yn-1-yloxy)benzyl)oxy)-6-((1R,2R)-1,2-dihydroxy-3-(2-(4′-hydroxy-[1,1′-biphenyl]-4-yl)acetamido)propyl)-4-hydroxytetrahydro-2H-pyran-2-carboxylic acid] | > 6.00 | 5.00 to 6.00 | 5.00 to 6.00 |

Next, values leading:

| pKd [1] | pKd [2] | pKd (cynomolgus Siglec-2/CD22) | SMILES |
| --- | --- | --- | --- |
| 5.00 to 6.00 | > 6.00 | > 6.00 | C#CCOCCCCCCO[C@]1(C(=O)O)C[C@H](O)[C@@H](NC(=O)CO)[C@H]([C@H](O)[C@H](O)CNC(=O)Cc2ccc(OC(F)(F)F)cc2)O1 [Compound 156, (2R,4S,5R,6R)-6-((1R,2R)-1,2-dihydroxy-3-(2-(4-(trifluoromethoxy)phenyl)acetamido)propyl)-4-hydroxy-5-(2-hydroxyacetamido)-2-((6-(prop-2-yn-1-yloxy)hexyl)oxy)tetrahydro-2H-pyran-2-carboxylic acid] |
| > 6.00 | > 6.00 | > 6.00 | CC(=O)NCCOCCOCCOCCOCCC(=O)NCCCCCCO[C@]1(C(=O)O)C[C@H](O)[C@@H](NC(=O)CO)[C@H]([C@H](O)[C@H](O)CNC(=O)Cc2ccc(-c3nnn[nH]3)cc2)O1 [Cpd. 235, (2R,4S,5R,6R)-6-((1R,2R)-3-(2-(4-(1H-tetrazol-5-yl)phenyl)acetamido)-1,2-dihydroxypropyl)-2-((2,18-dioxo-6,9,12,15-tetraoxa-3,19-diazapentacosan-25-yl)oxy)-4-hydroxy-5-(2-hydroxyacetamido)tetrahydro-2H-pyran-2-carboxylic acid] |
| > 6.00 | > 6.00 | > 6.00 | CC(=O)NCCOCCOCCOCCOCCNc1c(NCCCCCCO[C@]2(C(=O)O)C[C@H](O)[C@@H](NC(=O)CO)[C@H]([C@H](O)[C@H](O)CNC(=O)Cc3ccc(-c4nnn[nH]4)cc3)O2)c(=O)c1=O [Cpd. 265, (2R,4S,5R,6R)-6-((1R,2R)-3-(2-(4-(1H-tetrazol-5-yl)phenyl)acetamido)-1,2-dihydroxypropyl)-2-((6-((3,4-dioxo-2-((2-oxo-6,9,12,15-tetraoxa-3-azaheptadecan-17-yl)amino)cyclobut-1-en-1-yl)amino)hexyl)oxy)-4-hydroxy-5-(2-hydroxyacetamido)tetrahydro-2H-pyran-2-carboxylic acid] |
| > 6.00 | > 6.00 | > 6.00 | CC(=O)NCCOCCOCCOCCOCCC(=O)NCCCCCCO[C@]1(C(=O)O)C[C@H](O)[C@@H](NC(=O)CO)[C@H]([C@H](O)[C@H](O)CNC(=O)Cc2ccc(Cl)cc2)O1 [Cpd. 244, (2R,4S,5R,6R)-6-((1R,2R)-3-(2-(4-chlorophenyl)acetamido)-1,2-dihydroxypropyl)-2-((2,18-dioxo-6,9,12,15-tetraoxa-3,19-diazapentacosan-25-yl)oxy)-4-hydroxy-5-(2-hydroxyacetamido) tetrahydro-2H-pyran-2-carboxylic acid] |
| > 6.00 | > 6.00 | > 6.00 | C#CCOCCCCCCO[C@]1(C(=O)O)C[C@H](O)[C@@H](NC(=O)CO)[C@H]([C@H](O)[C@H](O)CNC(=O)Cc2ccc(-c3nnn[nH]3)cc2)O1 [Compound 176, (2R,4S,5R,6R)-6-((1R,2R)-3-(2-(4-(1H-tetrazol-5-yl)phenyl)acetamido)-1,2-dihydroxypropyl)-4-hydroxy-5-(2-hydroxyacetamido)-2-((6-(prop-2-yn-1-yloxy)hexyl)oxy)tetrahydro-2H-pyran-2-carboxylic acid] |
